Measured values from patent US12357585B2, “Cannabigerol and pharmaceutical compositions comprising cannabigerol for use in the treatment of insomnia” (AKASHA CORPORATION, priority 2019, dated 2025).

Tested on: panel members
Experiment: Panel-mediated testing of Cannabis accessions with defined cannabinoid profiles (panel N=67, plus anecdotal evidence)
Format: in vivo, human
From the text: This method allowed deduction, and therefore, for the first time, the introduction of a new chemotaxonomic classification system merely based on the cannabinoid composition of the plant samples (strains). 15 chemotypes are defined and many more sub-chemotypes are lately added. The samples given to panel members (accessions) contained Cannabis flos, the dried flower tips of the female Cannabis plant. […] All the 45,000 different “strains” were collected and compared to the panel data and data derived from retrospective (meta-) research and anecdotal evidence mainly originated from users, for both recreative and medicinal usage, from the Netherlands. Accession from Spain is included as a parameter and seemed important for the chemotaxonomic scheme for Cannabis species.
The anecdotal evidence is derived from and the panel members are selected from persons, men and women, of the age of 18 till 72 years old. They consumed cannabis joints or vapor having defined cannabinoid profiles, and record the effect during time. Monitoring takes 24 hours, to include data about wear-off problems after night (the next day). The cannabinoids according to the invention may for example be consumed as follows: • 1—Administered as Cannabis simplex per 50 mg unit dose for self-titration. […]

CCCCCc1cc(O)c(C/C=C(\C)CCC=C(C)C)c(O)c1 [Cannabigerol]
sleep attained by subjects (all subjects, in high concentration range "narcotic"): good or very good deep | Effects (panel session, vapor, joints or tea potion, ad libitum, effects dosage and patient related): “indica” or “stoned” effects; drowsiness
